Biological target: T1, Axl (Homo sapiens, UniProt P30530)
T1 sequence (P30530 26-894): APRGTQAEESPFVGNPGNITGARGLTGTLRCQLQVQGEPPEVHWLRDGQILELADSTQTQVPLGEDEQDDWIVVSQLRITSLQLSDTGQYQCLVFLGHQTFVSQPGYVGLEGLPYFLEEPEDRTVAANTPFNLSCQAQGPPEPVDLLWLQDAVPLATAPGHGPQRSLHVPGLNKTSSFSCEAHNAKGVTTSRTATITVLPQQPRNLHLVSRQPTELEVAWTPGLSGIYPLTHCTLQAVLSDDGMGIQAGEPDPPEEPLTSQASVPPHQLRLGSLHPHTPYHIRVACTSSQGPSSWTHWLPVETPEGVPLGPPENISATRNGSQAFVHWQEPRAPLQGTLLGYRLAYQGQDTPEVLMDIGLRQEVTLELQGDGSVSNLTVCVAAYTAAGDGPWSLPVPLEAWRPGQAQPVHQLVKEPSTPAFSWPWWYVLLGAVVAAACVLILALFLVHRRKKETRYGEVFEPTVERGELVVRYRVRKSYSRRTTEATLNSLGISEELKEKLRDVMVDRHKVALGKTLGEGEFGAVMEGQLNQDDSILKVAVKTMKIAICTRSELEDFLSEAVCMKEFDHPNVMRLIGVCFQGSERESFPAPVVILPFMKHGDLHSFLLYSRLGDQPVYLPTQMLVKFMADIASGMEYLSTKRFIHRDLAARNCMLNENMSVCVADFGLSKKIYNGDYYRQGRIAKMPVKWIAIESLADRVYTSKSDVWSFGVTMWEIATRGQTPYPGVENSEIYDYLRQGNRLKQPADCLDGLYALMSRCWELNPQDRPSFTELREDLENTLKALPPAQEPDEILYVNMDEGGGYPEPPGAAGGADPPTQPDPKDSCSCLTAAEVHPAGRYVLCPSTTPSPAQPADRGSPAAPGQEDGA
Experiment: anti-FLAG immunoprecipitation, phosphotyrosine Western blot densitometry
Format: cell-based

Cc1c[nH]c2nc(Nc3ccc(N4CCN(C)CC4)c(F)c3)nc(-c3cccc(CC#N)c3)c12 [SGI-7079]
EC50: < 100 nM
